In ChEMBL document CHEMBL1144931, “Synthesis, characterization, and biological properties of 8-azido- and 8-amino-substituted 2',5'-oligoadenylates” (J Med Chem, 2003):

Key:
[1] = target: T1, 2-5A-dependent ribonuclease (Mus musculus) (UniProt Q05921); test: Relative displacement of [125I]-labeled 2-5A from Ribonuclease L of mouse liver compared to pApApA
T1 sequence (whole entry): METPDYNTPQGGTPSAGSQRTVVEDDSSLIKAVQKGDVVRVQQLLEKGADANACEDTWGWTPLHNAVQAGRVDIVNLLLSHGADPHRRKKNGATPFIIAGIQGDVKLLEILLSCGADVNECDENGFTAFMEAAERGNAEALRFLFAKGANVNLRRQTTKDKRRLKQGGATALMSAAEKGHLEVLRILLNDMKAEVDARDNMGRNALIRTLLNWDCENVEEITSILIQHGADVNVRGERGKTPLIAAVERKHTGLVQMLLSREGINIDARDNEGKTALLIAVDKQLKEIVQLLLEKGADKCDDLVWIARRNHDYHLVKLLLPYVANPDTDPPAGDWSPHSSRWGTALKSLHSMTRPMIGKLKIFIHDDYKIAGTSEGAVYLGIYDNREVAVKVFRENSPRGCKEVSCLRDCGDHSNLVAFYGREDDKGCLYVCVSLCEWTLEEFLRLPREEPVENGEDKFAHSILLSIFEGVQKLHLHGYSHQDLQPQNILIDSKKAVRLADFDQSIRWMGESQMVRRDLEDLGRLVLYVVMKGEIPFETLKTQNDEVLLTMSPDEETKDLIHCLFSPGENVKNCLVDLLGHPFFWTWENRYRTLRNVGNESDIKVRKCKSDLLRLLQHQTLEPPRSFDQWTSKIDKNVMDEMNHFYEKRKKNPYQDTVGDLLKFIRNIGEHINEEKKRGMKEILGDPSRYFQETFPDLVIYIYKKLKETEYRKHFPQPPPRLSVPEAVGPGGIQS

[2] = target: T2, 2-5A-dependent ribonuclease (Mus musculus, UniProt Q05921); test: Displacement of [125I]-labeled 2-5A from 2-5A dependent Ribonuclease L (RNase L) of mouse liver
T2 sequence (Q05921 whole entry): T1 sequence (whole entry)

`Nc1ncnc2c1nc(N)n2[C@@H]1O[C@H](COP(=O)(O)O[C@@H]2[C@H](O)[C@@H](COP(=O)(O)O[C@@H]3[C@H](O)[C@@H](COP(=O)(O)O)O[C@H]3n3c(N)nc4c(N)ncnc43)O[C@H]2n2c(N)nc3c(N)ncnc32)[C@@H](O)[C@H]1O` was tested, and the Relative activity [1] was less than 0.0004 and the IC50 [2] was greater than 10000 nM.
In the case of `[N-]=[N+]=Nc1nc2c(N)ncnc2n1[C@@H]1O[C@H](COP(=O)(O)O[C@@H]2[C@H](O)[C@@H](COP(=O)(O)O[C@@H]3[C@H](O)[C@@H](COP(=O)(O)O[C@@H]4[C@H](O)[C@@H](CO)O[C@H]4n4c(N=[N+]=[N-])nc5c(N)ncnc54)O[C@H]3n3c(N=[N+]=[N-])nc4c(N)ncnc43)O[C@H]2n2c(N=[N+]=[N-])nc3c(N)ncnc32)[C@@H](O)[C@H]1O`, the Relative activity [1] is reported as 0.8 and the IC50 [2] is reported as 50 nM.
`Nc1ncnc2c1nc(N)n2C1O[C@H](COP(=O)(O)O[C@H]2C(n3c(N)nc4c(N)ncnc43)O[C@H](COP(=O)(O)O)[C@H]2O)[C@@H](O)[C@H]1O` (stereo partly specified) showed a Relative activity [1] of less than 0.0004 and an IC50 [2] greater than 10000 nM.
`Nc1ncnc2c1nc(N)n2C1O[C@H](COP(=O)(O)O[C@H]2C(n3c(N)nc4c(N)ncnc43)O[C@H](CO)[C@H]2O)[C@@H](O)[C@H]1O` (stereo partly specified) was tested, and the Relative activity [1] was less than 0.0004 and the IC50 [2] was greater than 10000 nM.
`[N-]=[N+]=Nc1nc2c(N)ncnc2n1C1O[C@H](COP(=O)(O)O[C@H]2C(n3c(N=[N+]=[N-])nc4c(N)ncnc43)O[C@H](COP(=O)(O)O)[C@H]2O)[C@@H](O)[C@H]1O` (stereo partly specified) showed a Relative activity [1] of 0.0008 and an IC50 [2] of 5000 nM.
For `Nc1ncnc2c1ncn2[C@@H]1O[C@H](CO[P@](=O)(O)O[C@@H]2[C@H](O)[C@@H](CO[P@](=O)(O)O[C@@H]3[C@H](O)[C@@H](CO[P@](=O)(O)O[P@@](=O)(O)OP(=O)(O)O)O[C@H]3n3cnc4c(N)ncnc43)O[C@H]2n2cnc3c(N)ncnc32)[C@@H](O)[C@H]1O`, the IC50 [2] was 3 nM.
`Nc1ncnc2c1nc(N)n2[C@@H]1O[C@H](COP(=O)(O)O[C@@H]2[C@H](O)[C@@H](COP(=O)(O)O[C@@H]3[C@H](O)[C@@H](COP(=O)(O)O[C@@H]4[C@H](O)[C@@H](CO)O[C@H]4n4c(N)nc5c(N)ncnc54)O[C@H]3n3c(N)nc4c(N)ncnc43)O[C@H]2n2c(N)nc3c(N)ncnc32)[C@@H](O)[C@H]1O` gave a Relative activity [1] of 0.004 and an IC50 [2] of 1000 nM.
Work on `Nc1ncnc2c1nc(N)n2[C@@H]1O[C@H](COP(=O)(O)O[C@@H]2[C@H](O)[C@@H](COP(=O)(O)O[C@@H]3[C@H](O)[C@@H](CO)O[C@H]3n3c(N)nc4c(N)ncnc43)O[C@H]2n2c(N)nc3c(N)ncnc32)[C@@H](O)[C@H]1O` yielded a Relative activity [1] of less than 0.0004 and an IC50 [2] greater than 10000 nM.
Work on `[N-]=[N+]=Nc1nc2c(N)ncnc2n1C1OC(COP(=O)(O)O)C(O)C1OP(=O)(O)OCC1OC(n2c(N=[N+]=[N-])nc3c(N)ncnc32)C(OP(=O)(O)OC[C@H]2OC(n3c(N=[N+]=[N-])nc4c(N)ncnc43)[C@H](O)[C@@H]2O)C1O` (stereo partly specified) yielded a Relative activity [1] of 2 and an IC50 [2] of 2 nM.
With `Nc1ncnc2c1ncn2[C@@H]1O[C@H](COP(=O)(O)O[C@@H]2[C@H](O)[C@@H](COP(=O)(O)O[C@@H]3[C@H](O)[C@@H](COP(=O)(O)OP(=O)(O)OP(=O)(O)O)O[C@H]3n3cnc4c(N)ncnc43)O[C@H]2n2cnc3c(N)ncnc32)[C@@H](O)[C@H]1O` the Relative activity [1] was 1.3.
Work on `Nc1ncnc2c1nc(N)n2C1O[C@H](COP(=O)(O)O[C@H]2C(n3c(N)nc4c(N)ncnc43)O[C@H](COP(=O)(O)O[C@H]3C(n4c(N)nc5c(N)ncnc54)O[C@H](COP(=O)(O)O[C@H]4C(n5c(N)nc6c(N)ncnc65)O[C@H](COP(=O)(O)O)[C@H]4O)[C@H]3O)[C@H]2O)[C@@H](O)[C@H]1O` (stereo partly specified) yielded a Relative activity [1] of 0.008 and an IC50 [2] of 500 nM.
`[N-]=[N+]=Nc1nc2c(N)ncnc2n1[C@@H]1O[C@H](COP(=O)(O)O[C@@H]2[C@H](O)[C@@H](COP(=O)(O)O[C@@H]3[C@H](O)[C@@H](COP(=O)(O)O[C@@H]4[C@H](O)[C@@H](COP(=O)(O)O)O[C@H]4n4c(N=[N+]=[N-])nc5c(N)ncnc54)O[C@H]3n3c(N=[N+]=[N-])nc4c(N)ncnc43)O[C@H]2n2c(N=[N+]=[N-])nc3c(N)ncnc32)[C@@H](O)[C@H]1O` gave a Relative activity [1] of 2 and an IC50 [2] of 2 nM.
Work on `[N-]=[N+]=Nc1nc2c(N)ncnc2n1C1O[C@H](COP(=O)(O)O[C@H]2C(n3c(N=[N+]=[N-])nc4c(N)ncnc43)O[C@H](CO)[C@H]2O)[C@@H](O)[C@H]1O` (stereo partly specified) yielded a Relative activity [1] of less than 0.0004 and an IC50 [2] greater than 10000 nM.
For `[N-]=[N+]=Nc1nc2c(N)ncnc2n1C1O[C@H](COP(=O)(O)O[C@H]2C(n3c(N=[N+]=[N-])nc4c(N)ncnc43)OC(COP(=O)(O)O[C@H]3C(n4c(N=[N+]=[N-])nc5c(N)ncnc54)O[C@H](CO)[C@H]3O)[C@H]2O)[C@@H](O)[C@H]1O` (stereo partly specified), the Relative activity [1] was 0.6 and the IC50 [2] was 70 nM.
